# From paper PMC7145717, “A nucleotide-dependent oligomerization of the Escherichia coli replication initiator DnaA requires residue His136 for remodeling of the chromosomal origin” (Nucleic Acids Research, 2019)
# Residue numbers refer to the chain shown, from its start. Names and notes keep the numbering of the source.
# T1: DnaA (Escherichia coli replication initiator DnaA) (Escherichia coli, UniProt P03004)
# T1 construct: full-length, residues 1-467, 10X-histidine-tagged, recombinant from plasmid pZL411, Ni-NTA purified (SAXS samples also Sephacryl-300 gel filtration), ~52 kDa monomer
# T1 sequence (P03004 1-467): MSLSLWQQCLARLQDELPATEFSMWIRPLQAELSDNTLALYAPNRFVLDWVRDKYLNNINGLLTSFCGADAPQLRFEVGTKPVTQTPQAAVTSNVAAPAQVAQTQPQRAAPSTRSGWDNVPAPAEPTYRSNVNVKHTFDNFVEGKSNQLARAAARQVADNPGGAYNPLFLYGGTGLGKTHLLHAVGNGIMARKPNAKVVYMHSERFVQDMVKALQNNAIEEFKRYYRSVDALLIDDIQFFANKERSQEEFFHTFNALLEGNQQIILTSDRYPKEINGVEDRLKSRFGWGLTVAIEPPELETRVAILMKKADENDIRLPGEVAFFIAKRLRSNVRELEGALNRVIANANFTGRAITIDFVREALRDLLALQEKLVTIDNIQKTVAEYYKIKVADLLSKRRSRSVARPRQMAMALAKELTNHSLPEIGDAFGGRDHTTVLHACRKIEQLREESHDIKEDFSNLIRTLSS
# T2: DnaA (Escherichia coli replication initiator DnaA) (Escherichia coli, UniProt P03004, F76A)
# T2 construct: full-length, residues 1-467, 10X-histidine-tagged, recombinant from plasmid pZL411, Ni-NTA purified (SAXS samples also Sephacryl-300 gel filtration), ~52 kDa monomer
# T2 sequence (P03004 1-467 F76A): T1 sequence (P03004 1-467) with F76A
# T3: DnaA (Escherichia coli replication initiator DnaA) (Escherichia coli, UniProt P03004, Q156E)
# T3 construct: full-length, residues 1-467, 10X-histidine-tagged, recombinant from plasmid pZL411, Ni-NTA purified (SAXS samples also Sephacryl-300 gel filtration), ~52 kDa monomer
# T3 sequence (P03004 1-467 Q156E): T1 sequence (P03004 1-467) with Q156E
# T4: DnaA (Escherichia coli replication initiator DnaA) (Escherichia coli, UniProt P03004, H136Q)
# T4 construct: full-length, residues 1-467, 10X-histidine-tagged, recombinant from plasmid pZL411, Ni-NTA purified (SAXS samples also Sephacryl-300 gel filtration), ~52 kDa monomer
# T4 sequence (P03004 1-467 H136Q): T1 sequence (P03004 1-467) with H136Q
# T5: DnaA (Escherichia coli replication initiator DnaA) (Escherichia coli, UniProt P03004, F76Y)
# T5 construct: full-length, residues 1-467, 10X-histidine-tagged, recombinant from plasmid pZL411, Ni-NTA purified (SAXS samples also Sephacryl-300 gel filtration), ~52 kDa monomer
# T5 sequence (P03004 1-467 F76Y): T1 sequence (P03004 1-467) with F76Y
# T6: DnaA (Escherichia coli replication initiator DnaA) (Escherichia coli, UniProt P03004, H136A)
# T6 construct: full-length, residues 1-467, 10X-histidine-tagged, recombinant from plasmid pZL411, Ni-NTA purified (SAXS samples also Sephacryl-300 gel filtration), ~52 kDa monomer
# T6 sequence (P03004 1-467 H136A): T1 sequence (P03004 1-467) with H136A
# T7: DnaA (Escherichia coli replication initiator DnaA) (Escherichia coli, UniProt P03004, Q156N)
# T7 construct: full-length, residues 1-467, 10X-histidine-tagged, recombinant from plasmid pZL411, Ni-NTA purified (SAXS samples also Sephacryl-300 gel filtration), ~52 kDa monomer
# T7 sequence (P03004 1-467 Q156N): T1 sequence (P03004 1-467) with Q156N
# B1: DnaA(H136A) (natural protein, E. coli, UniProt P03004 1-467, looked up)
# chain: T1 sequence (P03004 1-467) with H136A
# notes: DnaA, E. coli, amino acid residues 1-467, with H136A; Made by site-directed mutagenesis on pZL411; also called ATP-DnaA(H136A)
# Legend:
# [1] = target: T1, DnaA (Escherichia coli replication initiator DnaA); assay: nitrocellulose filter retention assay; conditions: read-out: K D (ATP binding)
# Text: (§1) nitrocellulose filter retention assay on DnaA (Escherichia coli replication initiator DnaA)
# [2] = target: T2, DnaA (Escherichia coli replication initiator DnaA); assay: nitrocellulose filter retention assay; conditions: read-out: K D (ATP binding)
# Text: as §1
# [3] = target: T3, DnaA (Escherichia coli replication initiator DnaA); assay: nitrocellulose filter retention assay; conditions: read-out: K D (ATP binding)
# Text: as §1
# [4] = target: T4, DnaA (Escherichia coli replication initiator DnaA); assay: nitrocellulose filter retention assay; conditions: read-out: K D (ATP binding)
# Text: as §1
# [5] = target: T5, DnaA (Escherichia coli replication initiator DnaA); assay: nitrocellulose filter retention assay; conditions: read-out: K D (ATP binding)
# Text: as §1
# [6] = target: T6, DnaA (Escherichia coli replication initiator DnaA); assay: nitrocellulose filter retention assay; conditions: read-out: K D (ATP binding)
# Text: as §1
# [7] = target: T7, DnaA (Escherichia coli replication initiator DnaA); assay: nitrocellulose filter retention assay; conditions: read-out: K D (ATP binding)
# Text: as §1
# [8] = target: the molecule itself; assay: cross-linking; amine-specific cross-linker DTSSP; apo or with 0.5 mM ADP, AMP-PNP or ATP; SDS-PAGE and western blot with anti-DnaA antibody
Molecule,Kd [1] [nM],Kd [2] [nM],Kd [3] [nM],Kd [4] [nM],Kd [5] [nM],Kd [6] [nM],Kd [7] [nM],binding result [8]
Nc1ncnc2c1ncn2[C@@H]1O[C@H](COP(=O)(O)OP(=O)(O)OP(=O)(O)O)[C@@H](O)[C@H]1O [ATP],110 ± 30,120 ± 30,100 ± 20,100 ± 20,140 ± 30,140 ± 40,100 ± 20,
B1,,,,,,,,binds
